Values of other authors as cited in US11793762B2, “Composition and method for reducing joint pain associated with hemarthrosis and hemophilic arthropathy” (UPEXMED CO. LTD., priority 2018, dated 2023).
In brackets after ≈: the same amount, converted by molar mass.

## Cc1ccc(-c2cc(C(F)(F)F)nn2-c2ccc(S(N)(=O)=O)cc2)cc1 [Celecoxib]
  solubility in water: 4300 µg/mL (≈ 11.3 mM)
